Measured values published in patent publication US20200157151A1, “PEPTIDE COMPOUNDS, CONJUGATE COMPOUNDS AND USES THEREOF FOR TREATING INFLAMMATORY DISEASES” (TRANSFERT PLUS, S.E.C., priority 2017, published 2020).
Square brackets hold non-standard residues; d marks the D form. Peptide text beside a SMILES is read from it. Nle = CCCC[C@H](N)C(=O)O

Tests used:
[1] = biological target: T1, Human recombinant Sortilin chimera protein (Homo sapiens, UniProt Q99523); assay: Surface plasmon resonance (Biacore) interaction with immobilized Sortilin; assay type: binding; settings: SPR; for Affinity for Sortilin, in words: comparison between peptides and Sortilin ligands
T1 construct: unnamed fusion partner or tag ('chimera'); purchased R&D Systems 3154-ST
T1 sequence (Q99523 78-755 limits assumed): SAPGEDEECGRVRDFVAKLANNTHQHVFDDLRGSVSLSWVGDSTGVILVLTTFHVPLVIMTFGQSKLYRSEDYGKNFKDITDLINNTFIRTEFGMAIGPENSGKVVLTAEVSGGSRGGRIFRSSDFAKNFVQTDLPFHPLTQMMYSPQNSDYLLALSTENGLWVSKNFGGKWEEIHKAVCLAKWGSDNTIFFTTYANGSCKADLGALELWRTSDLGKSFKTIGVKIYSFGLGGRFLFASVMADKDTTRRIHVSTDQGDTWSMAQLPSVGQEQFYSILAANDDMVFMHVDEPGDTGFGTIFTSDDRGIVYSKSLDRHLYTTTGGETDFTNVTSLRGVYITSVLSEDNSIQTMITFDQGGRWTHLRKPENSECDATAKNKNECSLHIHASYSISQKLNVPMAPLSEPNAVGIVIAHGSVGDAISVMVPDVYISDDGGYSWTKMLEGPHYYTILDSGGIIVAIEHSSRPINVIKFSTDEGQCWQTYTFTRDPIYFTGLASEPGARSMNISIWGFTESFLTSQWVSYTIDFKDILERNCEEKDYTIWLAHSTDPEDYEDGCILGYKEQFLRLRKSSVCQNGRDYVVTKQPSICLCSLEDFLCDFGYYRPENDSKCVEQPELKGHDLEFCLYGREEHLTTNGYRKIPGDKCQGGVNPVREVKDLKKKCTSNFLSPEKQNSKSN
Excerpt: FIG. 12 is schematic representation of real time interaction analysis using Surface Plasmon Resonance (SPR) and a Biacore instrument.
Further tests were made so as to investigate interaction of the peptide compounds of the present disclosure with Sortilin. Such tests were made using real-time surface plasmon resonance (Biacore) (see FIG. 12).

[2] = tested on: human HT-29 colorectal cancer cells; assay: Time-course uptake by flow cytometry (cell-associated fluorescence); assay type: cell-based; settings: 5 μM, 37° C., HT-29 cells, FIG. 4B
Method: FIG. 4 is a series of charts illustrating higher and sustained uptake of KBC-201 (FIG. 4A). At the same concentration (5 μM), KBC-201 generates about half the fluorescence compared to free curcumin (Ex.: 488 nm, Em.: 530 nm) (FIG. 4B). Time-course uptake of KBC-201 (full line) and free curcumin (dotted line) in human HT-29 colorectal cancer cells. HT-29 cells were incubated at 37° C. with 5 μM of KBC-201 or curcumin at various times, trypsinized, washed, and cell-associated fluorescence uptake was quantified using a BD Accuri™ C6 flow cytometer.
(§1) The uptake of Curcumin conjugate or free Curcumin was measured as a function of time in human HT-29 colon cancer cells (FIG. 4). […] Indeed, the Curcumin conjugate (KBC-201) is less fluorescent by about 2-3 folds when compared to free Curcumin. […] The uptake of both KBC-201 and free Curcumin was next measured in the presence of Sortilin ligands (FIG. 5B). […] Taken together, data of the pharmacological inhibition using Sortilin ligands and the silencing of Sortlin expression confirm that the Curcumin conjugate is internalized via a Sortilin-dependent mechanism.

[3] = biological target: T2, Sortilin receptor (Homo sapiens, UniProt Q99523); assay: Sortilin-mediated uptake in HT-29 cells (siRNA silencing and competition with Sortilin ligands); assay type: cell-based; settings: 5 μM; for Uptake when Sortilin expression is reduced by siRNA: 2 h, 37° C., siSortilin vs siScrambled HT-29 cells, FIG. 5A; for Uptake in the presence of Sortilin ligands: excess free peptide (50 μM), neurotensin (10 μM) or progranulin (1 nM), HT-29 cells, FIG. 5B
T2 construct: Sortilin-deficient (siSortilin) HT-29 colorectal cancer cells; endogenous in cells; host or cells: HT-29 human colorectal cancer cells
T2 sequence (Q99523 78-831): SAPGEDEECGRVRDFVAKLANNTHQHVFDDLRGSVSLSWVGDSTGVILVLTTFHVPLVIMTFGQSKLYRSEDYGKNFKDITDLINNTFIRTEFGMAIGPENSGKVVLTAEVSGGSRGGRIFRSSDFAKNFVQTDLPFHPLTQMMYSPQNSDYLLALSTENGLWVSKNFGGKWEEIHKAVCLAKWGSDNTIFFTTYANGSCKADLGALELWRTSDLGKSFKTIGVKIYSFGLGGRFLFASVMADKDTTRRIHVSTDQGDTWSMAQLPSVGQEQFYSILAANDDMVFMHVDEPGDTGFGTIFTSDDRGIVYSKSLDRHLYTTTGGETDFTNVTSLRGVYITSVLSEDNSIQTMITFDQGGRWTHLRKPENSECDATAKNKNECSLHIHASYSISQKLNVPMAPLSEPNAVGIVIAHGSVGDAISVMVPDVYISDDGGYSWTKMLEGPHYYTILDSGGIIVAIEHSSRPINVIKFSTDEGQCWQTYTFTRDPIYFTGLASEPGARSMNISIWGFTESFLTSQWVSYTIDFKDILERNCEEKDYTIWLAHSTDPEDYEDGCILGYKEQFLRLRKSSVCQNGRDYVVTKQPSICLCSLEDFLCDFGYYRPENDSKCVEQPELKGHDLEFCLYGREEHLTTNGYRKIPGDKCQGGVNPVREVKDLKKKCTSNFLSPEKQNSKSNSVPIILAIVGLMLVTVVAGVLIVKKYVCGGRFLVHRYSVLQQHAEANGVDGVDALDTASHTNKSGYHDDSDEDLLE
Method: FIG. 5 is a series of charts showing Sortilin-mediated uptake of KBC-201 in human colorectal cancer cells, FIG. 5A) Uptake of 5 μM of KBC-201 or free curcumin were performed at 37° C. in control (siScrambled) or Sortilin-deficient (siSortilin) HT-29 colorectal cancer cells. After a 2 h incubation, cells were trypsinized to remove non-internalized products, washed 3-times with ice-cold PBS and cell-associated fluorescence was quantified using a BD Accuri™ C6 flow cytometer. […] Cell-associated fluorescence uptake was quantified using a BD Accuri™ C6 flow cytometer.
as §1

[4] = Stability at room temperature followed by absorbance over time; settings: FIG. 11
Excerpt: FIG. 11 is a graph showing absorbance of Curcumin conjugates and free Curcumin.

[5] = tested on: TNF-α-induced COX-2 expression in human HT-29 colon cancer cells; settings: 2 h pre-treatment, 10 ng/mL TNF-α 24 h, HT-29, FIG. 7
Method: Cells were pre-treated for 2 h with indicated compounds in serum-free medium before the addition of 10 ng/mL TNF-α for 24 h. Cells were lysed and the levels protein expression of COX-2 were monitored by immunoblotting. […] For each sample, the COX-2 level was corrected for GAPDH (a loading control) and normalized to those seen in TNF-α control (value=100%).
Cells were pre-treated for 2 h with indicated compounds in serum-free medium before the addition of 10 ng/mL TNF-α for 24 h. Cells were lysed and the protein expression levels of COX-2 were monitored by immunoblotting. […] For each sample, the COX-2 level was corrected for GAPDH (a loading control) and normalized to those seen in TNF-α control (value=100%).

[6] = tested on: TNF-α-induced IκB phosphorylation in human HT-29 colon cancer cells; assay: Inhibition of TNF-α-induced IκB phosphorylation in HT-29 cells; assay type: cell-based; settings: 24 h pre-treatment, 100 ng/mL TNF-α 5 min, HT-29, FIG. 17; at a lower concentration than Curcumin
Excerpt: FIG. 8A) Immunodetection of IκB phosphorylation by TNF-α is shown.
One of the inflammatory pathways induced by TNF-α leads to the phosphorylation of IkB (FIG. 1), a key protein in inflammation. As expected, the addition of TNF-α to human HT-29 colon cancer cells triggered the phosphorylation of IkB (pIkB) (FIG. 8).
One of the inflammatory pathways induced by TNF-α leads to the phosphorylation IkB (see FIG. 1), a key protein in inflammation. It was observed that the addition of TNF-α to human HT-29 colon cancer cells triggered the phosphorylation of IkB (pIkB) (FIGS. 17A and 17B).

[7] = tested on: TNF-α-induced NFκB phosphorylation in human MDA-MB231 breast cancer cells; assay: Inhibition of TNF-α-induced NFκB phosphorylation in MDA-MB231 cells; assay type: cell-based; settings: 24 h pre-treatment, 100 ng/mL TNF-α 5 min, MDA-MB231, FIG. 18
Excerpt: FIG. 9A) Immunodetection of phosphorylated NFκB by TNF-α is shown.
FIGS. 9 and 10 are other examples of the Curcumin conjugate (KBC-201)'s effect on the TNF-α-induced signaling pathways in two other cancer cell models.
Results presented in FIGS. 18A and 18B show now that the peptide alone (KBP-201) can reduce the TNF-α-induced NFκB phosphorylation by about 30%.
In FIG. 18A, immunodetection of NFκB phosphorylation by TNF-α is shown.

CCCC[C@H](NC(=O)[C@H](CC(N)=O)NC(=O)[C@H](CCCNC(=N)N)NC(=O)[C@@H](NC(=O)CNC(=O)[C@H](C)NC(=O)[C@H](CCCCN)NC(=O)[C@H](C)NC(=O)[C@H](CCCNC(=N)N)NC(=O)[C@@H](NC(=O)CNC(C)=O)C(C)C)C(C)C)C(=O)N[C@@H](Cc1ccccc1)C(=O)N[C@@H](CCCCN)C(=O)N[C@@H](CO)C(=O)N[C@@H](CCC(=O)O)C(=O)N[C@@H](CO)C(=O)N[C@@H](Cc1ccc(O)cc1)C(=O)O [KBP-106] (Ac-GVRAKAGVRN[Nle]FKSESY-OH; C-terminus assumed)
Affinity for Sortilin, in words [1]: better affinity for Sortilin than Neurotensin

COc1cc(/C=C/C(=O)CC(=O)/C=C/c2ccc(O)c(OC)c2)ccc1O [Curcumin, reference compound]
Uptake over time (cell-associated fluorescence) ([2]; listed as free Curcumin): transient and low intracellular accumulation
Uptake over time (cell-associated fluorescence) ([2]; listed as free curcumin): transient uptake
Uptake when Sortilin expression is reduced by siRNA ([3]; listed as free Curcumin): unaffected
Uptake when Sortilin expression is reduced by siRNA ([3]; listed as free curcumin): not that of free curcumin
Uptake in the presence of Sortilin ligands ([3]; listed as free Curcumin): unaffected by none of them
Uptake in the presence of Sortilin ligands ([3]; listed as free curcumin): not that of free curcumin
Stability (absorbance over time) [4]: decreased more rapidly over time

Acetyl-GVRAK(curcumin)AGVRN(Nle)FK(curcumin)SESY [KBC-106]
Inhibition of TNFα-induced COX-2 expression, comparison of two conjugates [5]: more potent than free Curcumin
Stability (absorbance over time) [4]: more stable

CC(=O)N[C@@H](Cc1ccc(O)cc1)C(=O)N[C@@H](CCCCN)C(=O)N[C@@H](CO)C(=O)N[C@@H](CC(C)C)C(=O)N[C@@H](CCCNC(=N)N)C(=O)N[C@@H](CCCNC(=N)N)C(=O)N[C@@H](CCCCN)C(=O)N[C@@H](C)C(=O)N1CCC[C@H]1C(=O)N[C@@H](CCCNC(=N)N)C(=O)N[C@@H](Cc1c[nH]c2ccccc12)C(=O)N[C@@H](CC(=O)O)C(=O)N[C@@H](C)C(=O)N1CCC[C@H]1C(=O)N[C@@H](CC(C)C)C(=O)N[C@@H](CCCNC(=N)N)C(=O)N[C@@H](CC(=O)O)C(=O)N1CCC[C@H]1C(=O)N[C@@H](C)C(=O)N[C@@H](CC(C)C)C(=O)N[C@@H](CCCNC(=N)N)C(=O)N[C@@H](CCC(N)=O)C(=O)N[C@@H](CC(C)C)C(=O)N[C@@H](CC(C)C)C(=O)O [KBP-201]
Affinity for Sortilin, in words [1]: better affinity for Sortilin than Neurotensin
Affinity for Sortilin, in words ([1]; listed as KB-P201): better affinity
Reduction of TNF-α-induced phosphorylation of IkB, maximal effect [6]: 40%
Reduction of TNF-α-induced NFκB phosphorylation [7]: about 30%

RAP: receptor-associated protein, a Sortilin ligand [reference compound]
Kd ([1]; Sortilin immobilized on CM5 chip, KD calculated with Bia Evaluation software from sensorgrams of FIGS. 13-16, read-out: Affinity (KD)): 4.2 nM
